From patent US8163768B2, “1,4-dihydropyridine-fused heterocycles, process for preparing the same, use and compositions containing them” (Aventis Pharma S.A.., priority 2005, dated 2012)
pIC50: −log10 of the molar value. Structures can show the parent of a compound that is named as a salt.

Columns and labels:
[1] = biological target: T1, Aurora2 (Aurora-A) (Homo sapiens, UniProt O14965); test: Aurora 2 (Aurora A) kinase radioactivity scintillation assay using nickel chelate Flash plates; format: biochemical; conditions: 10 nM Aurora-A, 500 nM NuMA substrate, 1 μM ATP with [33P] ATP, 10 mM MgCl2, 30 minutes, 37° C.
T1 construct: Aurora-A: the full length recombinant protein including an N-terminal poly-histidine tail has been expressed in E. coli; poly-histidine (N); made in house; host or cells: E. coli
T1 sequence (O14965 1-403): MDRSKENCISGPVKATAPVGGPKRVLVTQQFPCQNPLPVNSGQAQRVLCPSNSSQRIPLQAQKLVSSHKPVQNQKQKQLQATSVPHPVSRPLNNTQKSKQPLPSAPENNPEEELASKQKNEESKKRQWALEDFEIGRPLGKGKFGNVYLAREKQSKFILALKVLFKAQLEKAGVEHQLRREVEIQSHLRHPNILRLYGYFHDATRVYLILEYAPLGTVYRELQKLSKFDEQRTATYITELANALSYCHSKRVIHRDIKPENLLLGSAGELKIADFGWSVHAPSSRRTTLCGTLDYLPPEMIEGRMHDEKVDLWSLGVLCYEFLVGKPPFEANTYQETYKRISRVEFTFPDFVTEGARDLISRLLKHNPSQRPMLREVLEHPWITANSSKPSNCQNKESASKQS
Method in brief: (§1)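 10 nM Aurora-B or Aurora-A with 500 nM NuMA-His substrate, 1 μM ATP plus [³³P]ATP, in 50 mM NaCl, 1 mM DTT and 5 mM (B) or 10 mM (A) MgCl2, 30 min at 37° C on nickel-chelate plates. Incorporated ³³P counted after washing, background-subtracted; IC50 fitted from % inhibition versus concentration.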

[2] = biological target: T2, Aurora1 (Aurora-B) (Homo sapiens, UniProt Q96GD4); test: Aurora 1 (Aurora B) kinase radioactivity scintillation assay using nickel chelate Flash plates; format: biochemical; conditions: 10 nM Aurora-B (co expressed with C3 fragment of INCEP), 500 nM NuMA substrate, 1 μM ATP with [33P] ATP, 5 mM MgCl2, 30 minutes, 37° C.
T2 construct: Aurora-B: the full length protein (His tagged in N-terminal) has been co expressed in SF9 cells; poly-histidine (N); made in house; host or cells: SF9 cells
Method in brief: as §1

T2 sequence (Q96GD4 whole entry, species assumed, the tested form may be a part): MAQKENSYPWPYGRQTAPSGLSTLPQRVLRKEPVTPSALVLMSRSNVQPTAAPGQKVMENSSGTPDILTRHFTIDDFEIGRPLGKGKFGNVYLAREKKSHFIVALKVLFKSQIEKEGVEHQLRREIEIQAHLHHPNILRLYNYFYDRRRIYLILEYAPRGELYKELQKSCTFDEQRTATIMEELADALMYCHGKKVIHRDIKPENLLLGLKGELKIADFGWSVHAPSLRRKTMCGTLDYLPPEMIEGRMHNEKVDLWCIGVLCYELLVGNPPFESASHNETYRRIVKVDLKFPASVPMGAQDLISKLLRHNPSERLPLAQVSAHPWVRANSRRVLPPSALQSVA
T2 sequence (Q9NQS7 821-918 partner limits assumed, species assumed): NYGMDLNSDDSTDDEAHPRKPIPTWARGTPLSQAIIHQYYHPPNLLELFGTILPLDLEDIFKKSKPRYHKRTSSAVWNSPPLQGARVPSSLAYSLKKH

Compound | pIC50 [1] | pIC50 [2]
Cc1ccc2[nH]c(Sc3ccc(C4C5=C(CCCC5=O)Nc5[nH]ncc54)s3)nc2c1 (stereo not shown) [Example 101, 4-[5-(5-Methyl-1H-benzimidazol-2-ylsulfanyl)-thiophen-2-yl]-1,4,6,7,8,9-hexahydro-pyrazolo[3,4-b]quinolin-5-one] | 5.77 | 7.22
Cc1ccc2[nH]c(Sc3ccc(C4C5=C(CC(C)(C)CC5=O)Nc5n[nH]cc54)s3)nc2c1 (stereo not shown) [Example 102, 7,7-Dimethyl-4-[5-(5-methyl-1H-benzoimidazol-2-ylsulfanyl)-thiophen-2-yl]-2,4,6,7,8,9-hexahydro-pyrazolo[3,4-b]quinolin-5-one] | 6.22 | 7.35
Cc1ccc2[nH]c(Sc3ccc(C4C5=C(CNCC5=O)Nc5n[nH]cc54)s3)nc2c1 (stereo not shown) [Example 103, 4-[5-(5-Methyl-1H-benzoimidazol-2-ylsulfanyl)-thiophen-2-yl]-2,4,6,7,8,9-hexahydro-pyrazolo[3,4-b]-1,7-naphthyridin-5-one; compound with trifluoro-acetic acid] | 5.33 | 6.52
CCOC(=O)c1[nH]cc2c1NC1=C(C(=O)CCCC1)C2c1ccc(Sc2nc3ccccc3[nH]2)o1 (stereo not shown) [Example 107, 10-[5-(1H-Benzoimidazol-2-ylsulfanyl)-furan-2-yl]-9-oxo-2,4,5,6,7,8,9,10-octahydro-2,4-diaza-cyclohepta[f]indene-3-carboxylic acid ethyl ester, compound with trifluoroacetic acid] | 5.53 | 5.59
CCOC(=O)c1[nH]cc2c1NC1=C(C(=O)CCC1)C2c1ccc(Sc2nc3ccncc3[nH]2)o1 (stereo not shown) [Example 117, 9-[5-(3H-Imidazo[4,5-c]pyridin-2-ylsulfanyl)-furan-2-yl]-8-oxo-4,5,6,7,8,9-hexahydro-2H-pyrrolo[3,4-b]quinoline-3-carboxylic acid ethyl ester] | 5.51 | 6.71
CCOC(=O)c1[nH]cc2c1NC1=C(C(=O)CNC1)C2c1ccc(Sc2nc3cc(O)ccc3[nH]2)o1 (stereo not shown) [Example 123, 9-[5-(5-Hydroxy-1H-benzimidazol-2-ylsulfanyl)-furan-2-yl]-8-oxo-4,5,6,7,8,9-hexahydro-2H-pyrrolo[3,4-b]-1,7-naphthyridine-3-carboxylic acid ethyl ester hydrochloride] | 6.09 | 7.14
CCOC(=O)c1[nH]cc2c1NC1=C(C(=O)CN(C(=O)OC(C)(C)C)C1)C2c1ccc(Sc2nc3cc(OC(F)F)ccc3[nH]2)o1 (stereo not shown) [Example 127] | 6.25 | 7.03
CCOC(=O)c1[nH]cc2c1NC1=C(C(=O)CN(C(=O)OC(C)(C)C)C1)C2c1ccc(Sc2nc3cc(Cl)ccc3[nH]2)o1 (stereo not shown) [Example 130] | 6.36 | 7.43
CCOC(=O)c1[nH]cc2c1NC1=C(C(=O)CCC1)C2c1ccc(Sc2nc3cc(C(F)(F)F)ccc3[nH]2)o1 (stereo not shown) [Example 132, 8-Oxo-9-[5-(5-trifluoromethyl-1H-benzimidazol-2-ylsulfanyl)-furan-2-yl]-4,5,6,7,8,9-hexahydro-2H-pyrrolo[3,4-b]quinoline-3-carboxylic acid ethyl ester] | 6.94 | 7.85
CCOC(=O)c1[nH]cc2c1NC1=C(C(=O)CN(C(=O)OC(C)(C)C)C1)C2c1ccc(Sc2nc3cc(Cl)c(C)cc3[nH]2)o1 (stereo not shown) [Example 134] | 6.28 | 7.33
CCOC(=O)c1[nH]cc2c1NC1=C(C(=O)CNC1)C2c1ccc(Sc2nc3cc(Cl)c(C)cc3[nH]2)o1 (stereo not shown) [Example 135, 9-[5-(5-Chloro-6-methyl-1H-benzimidazol-2-ylsulfanyl)-furan-2-yl]-8-oxo-4,5,6,7,8,9-hexahydro-2H-pyrrolo[3,4-b]-1,7-naphthyridine-3-carboxylic acid ethyl ester hydrochloride] | 6.92 | 7.66
CCOC(=O)c1[nH]cc2c1NC1=C(C(=O)CN(C(=O)OC(C)(C)C)C1)C2c1ccc(Sc2nc3cc(Cl)cc(C)c3[nH]2)o1 (stereo not shown) [Example 137, 6-tert-Butyloxy-9-[5-(5-chloro-7-methyl-1H-benzimidazol-2-ylsulfanyl)-furan-2-yl]-8-oxo-2,4,5,7,8,9-hexahydro-pyrrolo[3,4-b]-1,7-naphthyridine-3-carboxylic acid ethyl ester] | 6.69 | 7.03

The remaining molecules from weak to strong by pIC50 [1], led by results:

pIC50 [1] | pIC50 [2] | Compound
6.94 | 7.77 | CCOC(=O)c1[nH]cc2c1NC1=C(C(=O)CNC1)C2c1ccc(Sc2nc3cc(OC(F)F)ccc3[nH]2)o1 (stereo not shown) [Example 128, 9-[5-(5-Difluoromethoxy-1H-benzimidazol-2-ylsulfanyl)-furan-2-yl]-8-oxo-4,5,6,7,8,9-hexahydro-2H-pyrrolo[3,4-b]-1,7-naphthyridine-3-carboxylic acid ethyl ester hydrochloride]
6.95 | 7.64 | CCOC(=O)c1[nH]cc2c1NC1=C(C(=O)CNC1)C2c1ccc(Sc2nc3cccnc3[nH]2)o1 (stereo not shown) [Example 113, 9-[5-(3H-Imidazo[4,5-b]pyridin-2-ylsulfanyl)-furan-2-yl]-8-oxo-4,5,6,7,8,9-hexahydro-2H-pyrrolo[3,4-b][1,7]naphthyridine-3-carboxylic acid ethyl ester]
7.09 | 8.00 | CCOC(=O)c1[nH]cc2c1NC1=C(C(=O)CNC1)C2c1ccc(Sc2nc3cc(Cl)ccc3[nH]2)o1 (stereo not shown) [Example 131, 9-[5-(5-Chloro-1H-benzimidazol-2-ylsulfanyl)-furan-2-yl]-8-oxo-4,5,6,7,8,9-hexahydro-2H-pyrrolo[3,4-b]-1,7-naphthyridine-3-carboxylic acid ethyl ester hydrochloride]
7.20 | 7.77 | CCOC(=O)c1[nH]cc2c1NC1=C(C(=O)CC(C)(C)C1)C2c1ccc(Sc2nc3cc(C)ccc3[nH]2)o1 (stereo not shown) [Example 109, 6,6-Dimethyl-9-[5-(5-methyl-1H-benzimidazol-2-ylsulfanyl)-furan-2-yl]-8-oxo-4,5,6,7,8,9-hexahydro-2H-pyrrolo[3,4-b]quinoline-3-carboxylic acid ethyl ester]
7.39 | 8.10 | CCOC(=O)c1[nH]cc2c1NC1=C(C(=O)CCC1)C2c1ccc(Sc2nc3cc(C)ccc3[nH]2)o1 (stereo not shown) [Example 108, 9-[5-(5-Methyl-1H-benzimidazol-2-ylsulfanyl)-furan-2-yl]-8-oxo-4,5,6,7,8,9-hexahydro-2H-pyrrolo[3,4-b]quinoline-3-carboxylic acid ethyl ester]
7.39 | 7.89 | CCOC(=O)c1[nH]cc2c1NC1=C(C(=O)CCC1)C2c1ccc(Sc2nc3cc(OC(F)F)ccc3[nH]2)o1 (stereo not shown) [Example 126, 9-[5-(5-Difluoromethoxy-1H-benzimidazol-2-ylsulfanyl)-furan-2-yl]-8-oxo-4,5,6,7,8,9-hexahydro-2H-pyrrolo[3,4-b]quinoline-3-carboxylic acid ethyl ester]
7.51 | 8.30 | CCOC(=O)c1[nH]cc2c1NC1=C(C(=O)CCC1)C2c1ccc(Sc2nc3cc(Cl)c(C)cc3[nH]2)o1 (stereo not shown) [Example 133, 9-[5-(5-Chloro-6-methyl-1H-benzimidazol-2-ylsulfanyl)-furan-2-yl]-8-oxo-4,5,6,7,8,9-hexahydro-2H-pyrrolo[3,4-b]quinoline-3-carboxylic acid ethyl ester]
7.64 | 7.96 | CC1(C)CC(=O)C2=C(C1)Nc1c(c[nH]c1C(N)=O)C2c1ccc(Sc2nc3ccccc3[nH]2)o1 (stereo not shown) [Example 125, 9-[5-(1H-Benzimidazol-2-ylsulfanyl)-furan-2-yl]-6,6-dimethyl-8-oxo-4,5,6,7,8,9-hexahydro-2H-pyrrolo[3,4-b]quinoline-3-carboxamide]
7.70 | 7.82 | CC1(C)CC(=O)C2=C(C1)Nc1c(c[nH]c1C(=O)O)C2c1ccc(Sc2nc3ccccc3[nH]2)o1 (stereo not shown) [Example 124, 9-[5-(1H-Benzimidazol-2-ylsulfanyl)-furan-2-yl]-6,6-dimethyl-8-oxo-4,5,6,7,8,9-hexahydro-2H-pyrrolo[3,4-b]quinoline-3-carboxylic acid]
7.74 | 7.92 | CCOC(=O)c1[nH]cc2c1NC1=C(C(=O)CCC1)C2c1ccc(Sc2nc3cc(Cl)cc(C)c3[nH]2)o1 (stereo not shown) [Example 136, 9-[5-(5-Chloro-7-methyl-1H-benzimidazol-2-ylsulfanyl)-furan-2-yl]-8-oxo-4,5,6,7,8,9-hexahydro-2H-pyrrolo[3,4-b]quinoline-3-carboxylic acid ethyl ester]
8.10 | 8.22 | CCOC(=O)c1[nH]cc2c1NC1=C(C(=O)CNC1)C2c1ccc(Sc2nc3cc(Cl)cc(C)c3[nH]2)o1 (stereo not shown) [Example 138, 9-[5-(5-Chloro-7-methyl-1H-benzimidazol-2-ylsulfanyl)-furan-2-yl]-8-oxo-4,5,6,7,8,9-hexahydro-2H-pyrrolo[3,4-b]-1,7-naphthyridine-3-carboxylic acid ethyl ester hydrochloride]
